“And” between values parts separate entries of the source, which are not always exact repeats. Equal entries are not always repeated. Where two headings read alike, the source gives them in different places.
Tests used:
[1] = tested on: Bacillus subtilis NCIM 2724
Description: (§1) Two control stains are used: one having a cellulase activity (Bacillus subtilis NCIM 2724) the other one not having any activity (Escherichia coli BL21). Both strains are cultivated in an LB medium at 30° C. with stirring (240 rpm) for 18 h. For each strain, the culture is centrifuged (2 500 g, 5 min) and the pellet of cells is washed twice in 5 mL of an LB medium (centrifugation at 2 500 g, 5 min). This pellet is used for inoculation at OD=0.005 a culture in an inducing medium (Dubos medium with 2.5 g/L of carboxymethyl-cellulose) containing the fluorogenic substrate 8 and 2.5 μM (B. subtilis NCIM 2724) or 10 μM (E. coli BL21) of sulforhodamine. Both of these cell suspensions are used with perfluorinated oil in order to produce an emulsion consisting of two populations of droplets each containing one of the described suspensions. The blue and red fluorescences of the droplets are measured individually, on a sample of the emulsion, during production (t=0 h) and reinjection after having incubated the emulsion for 24 h at 30° C.
(§2) The graphs a and b, shown in FIG. 5, are two dimensional histograms of the red (in abscissas, RFU) and blue (in ordinates, RFU) fluorescence intensities measured on the emulsion during its production (a) and its reinjection after incubation fro 24 h at 30° C. (b). The population density is illustrated by a color code varying from pink (1 droplet) to red (>1,000 droplets) according to a logarithmic scale.

Escherichia coli BL21 = conditions: inactive strain
Description: as §1, §2

cellulase = conditions: substrate 0.25 mM in inducing Dubos medium with carboxymethyl-cellulose; 30° C, 24 h; excitation/emission 388/455 nm
Description: (§3) Different control strains are cultivated in an LB medium at 30° C. with stirring (240 rpm) for 18 h. For each strain, the culture is centrifuged (2,500 g, 5 min) and the pellet of cells is washed twice in 5 mL of LB medium (centrifugation at 2,500 g, 5 min). This pellet is used for inoculating at OD=0.005 a culture in an inducing medium (Dubos medium with 2.5 g/L of carboxymethyl-cellulose) containing the fluorogenic substrate (8 or 10) at 0.25 mM. The culture is incubated at 30° C. without stirring for 24 h. Culture supernatant samples are taken at different incubation times in order to be able to follow the occurrence of cellulase or β-glucosidase activities in the culture medium. The occurrence of these activities is followed by measurement of the fluorescence on the culture supernatants in microplates with excitation and emission wavelengths of 388 nm and 455 nm.

β-glucosidase [2] = conditions: substrate 0.25 mM in inducing Dubos medium with carboxymethyl-cellulose; 30° C, 24 h; excitation/emission 388/455 nm
Description: as §3

β-glucosidase [3] = conditions: substrate 0.25 mM, phosphate buffer pH 7.5, 30° C, 120 minutes
Description: (§4) The enzymatic kinetics are achieved in a microplate on soluble enzymatic extracts (A, B, C and D) rich in activities of the cellulase and xylanase type. These extracts are diluted 10 times (substrate 18, FIG. 1) or 100 times (substrate 10, 12 and 14, FIG. 2) in a 50 mM phosphate buffer, NaCl 150 mM, pH=7.5. A volume of 20 μL of diluted enzymatic extract is added to 20 μL of fluorogenic substrate (10, 12, 14 or 18) at 0.25 mM in a 50 mM phosphate buffer, NaCl 150 mM, pH=7.5. The kinetics are achieved at 30° C. The enzymatic hydrolysis of the different fluorogenic substrate is followed for 120 minutes by measuring the fluorescence with excitation and emission wavelengths of: 339 nm and 452 nm for the substrates 10, 12 and 14; 375 nm and 510 nm for the substrate 18.

β-xylosidase = conditions: extracts diluted 100 times; substrate 0.25 mM; phosphate buffer pH 7.5; 30° C; 120 minutes; excitation/emission 339/452 nm
Description: as §4

xylanase = conditions: extracts diluted 100 times; substrate 0.25 mM; phosphate buffer pH 7.5; 30° C; 120 minutes; excitation/emission 339/452 nm
Description: as §4

## O=c1cc(CS(=O)(=O)[O-])c2cc(F)c(O[C@@H]3O[C@H](CO)[C@@H](O[C@@H]4O[C@H](CO)[C@@H](O)[C@H](O)[C@H]4O)[C@H](O)[C@H]3O)c(F)c2o1.[Na+] [substrate 8, sodium β-D-cellobioside 6,8-difluoro-7-hydroxycoumarin-4-methanesulfonate]
[1]; after 24 h of incubation at 30° C, active strain
  change of blue fluorescence of the droplets: blue fluorescence significantly increased
[1]; emulsion generated by a microfluidic system, 24 h at 30° C
  detection of an activity of the cellulase type on microorganisms within an emulsion: allows detection of an activity of the cellulase type
[1]; reinjection (t = 24 h) after incubation at 30° C, active strain, 2.5 μM sulforhodamine, threshold 37.56 RFU blue fluorescence
  % of positive droplets: 27% and 27.61%
Escherichia coli BL21; after 24 h of incubation at 30° C
  change of blue fluorescence of the droplets: do not have any increase of their blue fluorescence
Escherichia coli BL21; reinjection (t = 24 h) after incubation at 30° C, 10 μM sulforhodamine, threshold 37.56 RFU blue fluorescence
  % of positive droplets: 0.26%
cellulase
  detection of enzymatic activity of the cellulase type on cultures of microorganisms: allow detection of the enzymatic activities

## O=c1cc(CS(=O)(=O)[O-])c2cc(F)c(O[C@@H]3O[C@H](CO)[C@@H](O)[C@H](O)[C@H]3O)c(F)c2o1.[Na+] [substrate 10, sodium β-D-glucoside 6,8-difluoro-7-hydroxycoumarin-4-methanesulfonate]
β-glucosidase [2]
  detection of enzymatic activity of the β-glucosidase type on cultures of microorganisms: allow detection of the enzymatic activities
β-glucosidase [3]; extracts diluted 100 times, excitation/emission 339/452 nm
  detection of enzymatic activity of type β-glucosidase by fluorescence: allow detection of the enzymatic activities

## O=c1cc(CS(=O)(=O)[O-])c2cc(F)c(O[C@@H]3OC[C@@H](O)[C@H](O)[C@H]3O)c(F)c2o1.[Na+] [substrate 12, sodium β-D-xyloside 6,8-difluoro-7-hydroxycoumarin-4-methanesulfonate]
β-xylosidase
  detection of enzymatic activity of type β-xylosidase by fluorescence: allow detection of the enzymatic activities

## O=c1cc(CS(=O)(=O)[O-])c2cc(F)c(O[C@@H]3OC[C@@H](O[C@@H]4OC[C@@H](O)[C@H](O)[C@H]4O)[C@H](O)[C@H]3O)c(F)c2o1.[Na+] [substrate 14, sodium β-D-xylobioside 6,8-difluoro-7-hydroxycoumarin-4-methanesulfonate]
xylanase
  detection of enzymatic activity of xylanase type by fluorescence: allow detection of the enzymatic activities

## O=c1cc(CS(=O)(=O)[O-])c2c(cc(O[C@@H]3O[C@H](CO)[C@@H](O)[C@H](O)[C@H]3O)c3ccccc32)o1.[Na+] [substrate 18, sodium β-D-glucoside 5,6-benzo-7-hydroxycoumarin-4-methanesulfonate]
β-glucosidase [3]; extracts diluted 10 times, excitation/emission 375/510 nm
  detection of enzymatic activity of type β-glucosidase by fluorescence: allow detection of the enzymatic activities
